Results reported in patent US8524745B2 (Allergan, Inc., priority 2011, dated 2013).

The molecules below were run against T1, CCR2 (Homo sapiens, UniProt P41597) (assay: CCR2 calcium activity assay on FLIPR Tetra in HEK-Gqi5 cells stably expressing CCR2).
T1 construct: expressed in transfected cells
Format: cell-based
Protocol: HEK-Gqi5 cells stably expressing CCR2 were cultured in (DMEM high glucose, 10% FBS, 1% PSA, 400 μg/ml geneticin and 50 μg/ml hygromycin. Appropriate positive control chemokines (MCP-1, MIP1A or RANTES) was used as the positive control agonist for screening compound-induced calcium activity assayed on the FLIPR^Tetra. The drug plates were prepared in 384-well microplates using the EP3 and the MuItiPROBE robotic liquid handling systems. Compounds were synthesized and tested for CCR2 activity.

T1 sequence (P41597 whole entry, species assumed): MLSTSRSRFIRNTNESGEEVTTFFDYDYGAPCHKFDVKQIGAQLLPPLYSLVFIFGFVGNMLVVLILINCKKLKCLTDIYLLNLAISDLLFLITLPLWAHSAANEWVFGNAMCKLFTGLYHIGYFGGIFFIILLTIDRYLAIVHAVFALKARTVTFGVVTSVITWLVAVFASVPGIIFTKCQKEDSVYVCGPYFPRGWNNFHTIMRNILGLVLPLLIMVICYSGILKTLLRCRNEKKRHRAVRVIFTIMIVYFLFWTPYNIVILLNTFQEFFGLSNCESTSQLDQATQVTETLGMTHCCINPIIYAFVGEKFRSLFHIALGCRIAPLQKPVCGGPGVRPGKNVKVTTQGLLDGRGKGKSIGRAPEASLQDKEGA

Structure (SMILES) | CCR2 % ANTAG | IC50
COc1cccc(S(=O)(=O)Nc2cc(Cl)c(Cl)cc2NS(=O)(=O)c2ccc3c(c2)c(=O)sn3C)c1 [N-(4,5-dichloro-2-{[(3-methoxyphenyl)sulfonyl]amino}phenyl)-1-methyl-3-oxo-1,3-dihydro-2,1-benzisothiazole-5-sulfonamide] | 92% | 651 nM
Cn1sc(=O)c2cc(S(=O)(=O)Nc3cc(Cl)c(Cl)cc3NS(=O)(=O)c3cc(Cl)c(Cl)s3)ccc21 [N-(4,5-dichloro-2-{[(4,5-dichloro-2-thienyl)sulfonyl]amino}phenyl)-1-methyl-3-oxo-1,3-dihydro-2,1-benzisothiazole-5-sulfonamide] | 103% | 2340 nM
COc1ccc(S(=O)(=O)Nc2cc(Cl)c(Cl)cc2NS(=O)(=O)c2ccc3c(c2)c(=O)sn3C)cc1 [N-(4,5-dichloro-2-{[(4-methoxyphenyl)sulfonyl]amino}phenyl)-1-methyl-3-oxo-1,3-dihydro-2,1-benzisothiazole-5-sulfonamide] | 86% | 1010 nM
Cc1ccc(S(=O)(=O)Nc2cc(Cl)c(Cl)cc2NS(=O)(=O)c2ccc3c(c2)c(=O)sn3C)s1 [N-(4,5-dichloro-2-{[(5-methyl-2-thienyl)sulfonyl]amino}phenyl)-1-methyl-3-oxo-1,3-dihydro-2,1-benzisothiazole-5-sulfonamide] | 95% | 851 nM
Cc1cc(NS(=O)(=O)c2ccc3c(c2)c(=O)sn3C)c(C)cc1Cl [N-(4-chloro-2,5-dimethylphenyl)-1-methyl-3-oxo-1,3-dihydro-2,1-benzisothiazole-5-sulfonamide] | 80% | 1850 nM
COc1cc(Cl)c(C)cc1NS(=O)(=O)c1ccc2c(c1)c(=O)sn2C [N-(4-chloro-2-methoxy-5-methylphenyl)-1-methyl-3-oxo-1,3-dihydro-2,1-benzisothiazole-5-sulfonamide] | 0% | > 8300 nM
COc1ccc(C(=O)Nc2ccc(Cl)cc2NS(=O)(=O)c2ccc3c(c2)c(=O)sn3C)cc1 [N-(4-chloro-2-{[(1-methyl-3-oxo-1,3-dihydro-2,1-benzisothiazol-5-yl)sulfonyl]amino}phenyl)-4-methoxybenzamide] | 56% | 
CC(=O)Nc1ccc(S(=O)(=O)Nc2ccc(Cl)cc2NS(=O)(=O)c2ccc3c(c2)c(=O)sn3C)cc1 [N-(4-{[(4-chloro-2-{[(1-methyl-3-oxo-1,3-dihydro-2,1-benzisothiazol-5-yl)sulfonyl]amino}phenyl)amino]sulfonyl}phenyl)acetamide] | 80% | 2230 nM
COc1ccc(S(=O)(=O)Nc2ccc(Cl)cc2NS(=O)(=O)c2ccc3c(c2)c(=O)sn3C)c(OC)c1 [N-(5-chloro-2-{[(2,4-dimethoxyphenyl)sulfonyl]amino}phenyl)-1-methyl-3-oxo-1,3-dihydro-2,1-benzisothiazole-5-sulfonamide] | 95% | 1680 nM
COc1ccccc1S(=O)(=O)Nc1ccc(Cl)cc1NS(=O)(=O)c1ccc2c(c1)c(=O)sn2C [N-(5-chloro-2-{[(2-methoxyphenyl)sulfonyl]amino}phenyl)-1-methyl-3-oxo-1,3-dihydro-2,1-benzisothiazole-5-sulfonamide] | 91% | 397 nM
Cn1sc(=O)c2cc(S(=O)(=O)Nc3cc(Cl)ccc3NS(=O)(=O)c3ccc(Cl)c(Cl)c3)ccc21 [N-(5-chloro-2-{[(3,4-dichlorophenyl)sulfonyl]amino}phenyl)-1-methyl-3-oxo-1,3-dihydro-2,1-benzisothiazole-5-sulfonamide] | 97% | 1290 nM
